# Source: the supplement of paper PMC4862054
# Columns and labels:
# [1] = system: MDA-MB-436; assay: normalised viability (% of control), CellTiter-Blue; higher = more viable cells (about 100 = DMSO control); details: incubation time: 72 h
# How it was run: (§1)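 Seeded at 20 µl suspension per well onto compound-loaded 384-well plates, breast cancer cell lines were incubated 72 h. CellTiter-Blue fluorescence at 560/590 nm was then read, with each plate normalised to vehicle (100) and a positive kill control (0). Normalised viability is reported at a single listed concentration of the series.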
# [2] = system: MDA-MB-468; assay: as above; details: incubation time: 72 h
# How it was run: as §1
# [3] = system: MDA-MB-231; assay: as above; details: incubation time: 72 h
# How it was run: as §1
# [4] = system: HCC1599; assay: as above; details: incubation time: 72 h
# How it was run: as §1
# [5] = system: CAL-120; assay: as above; details: incubation time: 72 h
# How it was run: as §1
# [6] = system: HCC1143; assay: as above; details: incubation time: 72 h
# How it was run: as §1
# [7] = system: Hs578T; assay: as above; details: incubation time: 72 h
# How it was run: as §1
# [8] = system: BT-474; assay: as above; details: incubation time: 72 h
# How it was run: as §1
# [9] = system: SK-BR-3; assay: as above; details: incubation time: 72 h
# How it was run: as §1
# [10] = system: HCC1937; assay: as above; details: incubation time: 72 h
# How it was run: as §1
# [11] = system: HDQ-P1; assay: as above; details: incubation time: 72 h
# How it was run: as §1
# [12] = system: CAL-51; assay: as above; details: incubation time: 72 h
# How it was run: as §1
# [13] = system: CAL-148; details: 72 h
# How it was run: (§2)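 Compound dissolved in 5 µl medium was placed in 384-well plates before 20 µl of breast cancer cell suspension was added, and the plates were incubated for 72 h. Cells then received 2.5 µl CellTiter-Blue for 2 h at 37 °C, and fluorescence was read at 560/590 nm. EC50 values come from percent-inhibition dose-response fits that were censored at the highest concentration, with plates normalised to vehicle and a positive kill control and rows with a zero drug sensitivity score excluded.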
# [14] = system: CAL-51; details: 72 h
# How it was run: as §2
smiles,measurement,setting,value
Cc1c2oc3c(C)ccc(C(=O)N[C@@H]4C(=O)N[C@H](C(C)C)C(=O)N5CCC[C@H]5C(=O)N(C)CC(=O)N(C)[C@@H](C(C)C)C(=O)O[C@@H]4C)c3nc-2c(C(=O)N[C@@H]2C(=O)N[C@H](C(C)C)C(=O)N3CCC[C@H]3C(=O)N(C)CC(=O)N(C)[C@@H](C(C)C)C(=O)O[C@@H]2C)c(N)c1=O [Dactinomycin],normalised viability,[1]; 1 nM,48.8%
same,normalised viability,[1]; 100 nM,13.1%
same,normalised viability,[1]; 1000 nM,9.7%
same,normalised viability,[2]; 1 nM,60.3%
same,normalised viability,[2]; 100 nM,3.39%
same,normalised viability,[2]; 1000 nM,4.33%
same,normalised viability,[3]; 1 nM,53.3%
same,normalised viability,[3]; 100 nM,7.55%
same,normalised viability,[3]; 1000 nM,5.39%
same,normalised viability,[4]; 1 nM,87.7%
same,normalised viability,[4]; 100 nM,18.1%
same,normalised viability,[4]; 1000 nM,12.8%
same,normalised viability,[5]; 1 nM,51%
same,normalised viability,[5]; 100 nM,11.9%
same,normalised viability,[5]; 1000 nM,9.97%
same,normalised viability,[6]; 1 nM,50.3%
same,normalised viability,[6]; 100 nM,17.6%
same,normalised viability,[6]; 1000 nM,16%
same,normalised viability,[7]; 1 nM,53.8%
same,normalised viability,[7]; 100 nM,3.41%
same,normalised viability,[7]; 1000 nM,1.67%
same,normalised viability,[8]; 1 nM,73.3%
same,normalised viability,[8]; 100 nM,25.2%
same,normalised viability,[8]; 1000 nM,24.1%
same,normalised viability,[9]; 1 nM,76%
same,normalised viability,[9]; 100 nM,3.88%
same,normalised viability,[9]; 1000 nM,4.85%
same,normalised viability,[10]; 1 nM,65.8%
same,normalised viability,[10]; 100 nM,21.8%
same,normalised viability,[10]; 1000 nM,18.4%
same,normalised viability,[11]; 0.3 nM,85.1%
same,normalised viability,[11]; 3 nM,45.2%
same,normalised viability,[11]; 10 nM,35.9%
same,normalised viability,[12]; 0.3 nM,99.7%
same,normalised viability,[12]; 3 nM,50%
same,normalised viability,[12]; 10 nM,17.8%
same,"EC50, CellTiter-Blue viability",[13],0.76 nM
same,"EC50, CellTiter-Blue viability",[14],2.72 nM
CN1CCC(COc2cnc(-c3cccc(Cn4nc(-c5cccc(C#N)c5)ccc4=O)c3)nc2)CC1,normalised viability,[1]; 10 nM,82.3%
same,normalised viability,[1]; 1000 nM,92.3%
same,normalised viability,[1]; 10000 nM,11.6%
same,normalised viability,[2]; 10 nM,92.8%
same,normalised viability,[2]; 1000 nM,92.9%
same,normalised viability,[2]; 10000 nM,5.99%
same,normalised viability,[3]; 10 nM,79%
same,normalised viability,[3]; 1000 nM,81.3%
same,normalised viability,[3]; 10000 nM,1.93%
same,normalised viability,[4]; 10 nM,108%
same,normalised viability,[4]; 1000 nM,120%
same,normalised viability,[4]; 10000 nM,71.9%
same,normalised viability,[5]; 10 nM,97.3%
same,normalised viability,[5]; 1000 nM,116%
same,normalised viability,[5]; 10000 nM,11.8%
same,normalised viability,[6]; 10 nM,116%
same,normalised viability,[6]; 1000 nM,103%
same,normalised viability,[6]; 10000 nM,114%
same,normalised viability,[7]; 10 nM,105%
same,normalised viability,[7]; 1000 nM,91%
same,normalised viability,[7]; 10000 nM,59.8%
same,normalised viability,[8]; 10 nM,93.6%
same,normalised viability,[8]; 1000 nM,105%
same,normalised viability,[8]; 10000 nM,9.72%
same,normalised viability,[9]; 10 nM,93.1%
same,normalised viability,[9]; 1000 nM,89.2%
same,normalised viability,[9]; 10000 nM,2.76%
same,normalised viability,[10]; 10 nM,79.1%
same,normalised viability,[10]; 1000 nM,96.1%
same,normalised viability,[10]; 10000 nM,10.6%
same,normalised viability,[11]; 3 nM,82%
same,normalised viability,[11]; 30 nM,91.8%
same,normalised viability,[11]; 100 nM,70.5%
same,normalised viability,[12]; 3 nM,97.3%
same,normalised viability,[12]; 30 nM,98%
same,normalised viability,[12]; 100 nM,87.6%
same,"EC50, CellTiter-Blue viability",[13],5800 nM
same,"EC50, CellTiter-Blue viability",[14],4990 nM
CO[C@H]1C[C@@H]2CC[C@@H](C)[C@@](O)(O2)C(=O)C(=O)N2CCCC[C@H]2C(=O)O[C@H]([C@H](C)C[C@@H]2CC[C@@H](OC(=O)C(C)(CO)CO)[C@H](OC)C2)CC(=O)[C@H](C)/C=C(\C)[C@@H](O)[C@@H](OC)C(=O)[C@H](C)C[C@H](C)/C=C/C=C/C=C/1C [Temsirolimus],normalised viability,[1]; 1 nM,81.8%
same,normalised viability,[1]; 100 nM,80.6%
same,normalised viability,[1]; 1000 nM,69.5%
same,normalised viability,[2]; 1 nM,74.6%
same,normalised viability,[2]; 100 nM,68.5%
same,normalised viability,[2]; 1000 nM,62.4%
same,normalised viability,[3]; 1 nM,73.4%
same,normalised viability,[3]; 100 nM,75.1%
same,normalised viability,[3]; 1000 nM,78.4%
same,normalised viability,[4]; 1 nM,103%
same,normalised viability,[4]; 100 nM,78.7%
same,normalised viability,[4]; 1000 nM,86.8%
same,normalised viability,[5]; 1 nM,70.6%
same,normalised viability,[5]; 100 nM,46.5%
same,normalised viability,[5]; 1000 nM,42.7%
same,normalised viability,[6]; 1 nM,75.7%
same,normalised viability,[6]; 100 nM,66.5%
same,normalised viability,[6]; 1000 nM,61%
same,normalised viability,[7]; 1 nM,70.4%
same,normalised viability,[7]; 100 nM,55.1%
same,normalised viability,[7]; 1000 nM,57.6%
same,normalised viability,[8]; 1 nM,80%
same,normalised viability,[8]; 100 nM,58.6%
same,normalised viability,[8]; 1000 nM,66.2%
same,normalised viability,[9]; 1 nM,76.1%
same,normalised viability,[9]; 100 nM,54%
same,normalised viability,[9]; 1000 nM,49.7%
same,normalised viability,[10]; 1 nM,59.5%
same,normalised viability,[10]; 100 nM,68.7%
same,normalised viability,[10]; 1000 nM,54.7%
same,normalised viability,[11]; 0.3 nM,106%
same,normalised viability,[11]; 3 nM,78.4%
same,normalised viability,[11]; 10 nM,82.5%
same,normalised viability,[12]; 0.3 nM,89.4%
same,normalised viability,[12]; 3 nM,55.5%
same,normalised viability,[12]; 10 nM,37.5%
same,"EC50, CellTiter-Blue viability",[13],0.47 nM
same,"EC50, CellTiter-Blue viability",[14],1.36 nM
CN(C)C/C=C/C(=O)Nc1cc2c(Nc3ccc(F)c(Cl)c3)ncnc2cc1O[C@H]1CCOC1 [Afatinib],normalised viability,[1]; 10 nM,90.8%
same,normalised viability,[1]; 1000 nM,103%
same,normalised viability,[1]; 10000 nM,17.3%
same,normalised viability,[2]; 10 nM,99.1%
same,normalised viability,[2]; 1000 nM,56.9%
same,normalised viability,[2]; 10000 nM,11.5%
same,normalised viability,[3]; 10 nM,89.1%
same,normalised viability,[3]; 1000 nM,74.2%
same,normalised viability,[3]; 10000 nM,7.48%
same,normalised viability,[4]; 10 nM,97.4%
same,normalised viability,[4]; 1000 nM,77.6%
same,normalised viability,[4]; 10000 nM,79.5%
same,normalised viability,[5]; 10 nM,71.8%
same,normalised viability,[5]; 1000 nM,66.1%
same,normalised viability,[5]; 10000 nM,13.2%
same,normalised viability,[6]; 10 nM,66%
same,normalised viability,[6]; 1000 nM,70%
same,normalised viability,[6]; 10000 nM,42.9%
same,normalised viability,[7]; 10 nM,98%
same,normalised viability,[7]; 1000 nM,95.7%
same,normalised viability,[7]; 10000 nM,14.4%
same,normalised viability,[8]; 10 nM,72.1%
same,normalised viability,[8]; 1000 nM,33.8%
same,normalised viability,[8]; 10000 nM,16%
same,normalised viability,[9]; 10 nM,52.1%
same,normalised viability,[9]; 1000 nM,19.3%
same,normalised viability,[9]; 10000 nM,12.3%
same,normalised viability,[10]; 10 nM,83.2%
same,normalised viability,[10]; 1000 nM,67.5%
same,normalised viability,[10]; 10000 nM,13.9%
same,normalised viability,[11]; 3 nM,92.5%
same,normalised viability,[11]; 30 nM,76.9%
same,normalised viability,[11]; 100 nM,77.1%
same,normalised viability,[12]; 3 nM,114%
same,normalised viability,[12]; 30 nM,99.8%
same,normalised viability,[12]; 100 nM,97.7%
same,"EC50, CellTiter-Blue viability",[13],65 nM
same,"EC50, CellTiter-Blue viability",[14],4750 nM
